Results: EP1500403A1, “PREVENTIVE/REMEDY FOR DIABETES” (Ajinomoto Co., Inc., priority 2002, dated 2003)

How the values were obtained:
[1] = test system: Renal brush border membrane; assay: Assessment of inhibitory action of glucose uptake, 14C-D-glucose (Test Example 1A); format: biochemical, rat; details: incubation 37 °C 30 minutes, 14C-D-glucose one minute
Method: Test compounds were dissolved in 100 mM mannitol-10 mM HEPES/Tris, pH 7.4 to prepare solutions at various concentrations.
Renal brush border membrane was prepared from a rat kidney, to which a solution of a test compound was added for incubation at 37 °C for 30 minutes. Then, ^14C-D-glucose was added for incubation for one minute. A solution containing 1 mM phlorizin was used to terminate the glucose uptake reaction. The radioactivity ^14C of ^14C-D-glucose incorporated in the renal brush border membrane was counted with a liquid scintillation counter. The glucose uptake independent on sodium was reduced from the glucose uptake in a control group or a test group, to calculate the inhibition intensity.

Male Wistar rats = assay: Evaluation of urine sugar excretion action in rats (Test Example 1); format: in vivo; details: 100 mg/kg p.o. in olive oil, urine collected 24 hours, per individual per day
Method: Male Wistar rats aged 5 weeks (purchased from Charles River Japan, Inc.) were acclimatized in metabolic cages for one week, for use at this experiment. The test compounds suspended in olive oil were prepared into a 20 mg/ml solution to a dose of 5 ml per 1 kg rat body weight.
After the rats were starved for 4 hours, the test compounds were orally given at 100 mg/kg to the rats at 11 am. Immediately after dosing until 24 hours later, urine was collected. The volume of urine was measured. Then, urine sugar concentration was assayed by glucose oxidase method, to calculate the glucose excretion into urine per individual per day.

glucose-loaded mice = assay: Blood glucose time course after oral glucose loading in KK mice (Example II); format: in vivo; details: glucose 1 g/kg p.o.
Method: KK mice (age of 25 weeks; male) fed with a commercially available high-calories feed for breeding (CMF; Oriental Yeast) were divided into groups with matched body weights. After starvation for 17 hours, glucose was orally given at 1 g/kg. Immediately thereafter, the inhibitor A of renal glucose reabsorption (30 mg/kg or 45 mg/kg) or metformin (200 mg/kg or 300 mg/kg) was orally given. Additionally, a group given with the inhibitor A of renal glucose reabsorption (30 mg/kg) and metformin (200 mg/kg) was prepared. A vehicle was orally given to a control group after glucose dosing.
Blood glucose level was assayed in a time course.

[2] = test system: Type 2 diabetic model GK rats; assay: Blood glucose after repeated once daily dosing in GK rats (Example III); format: in vivo; details: once daily p.o., day 25, glibenclamide 3 mg/kg, inhibitor A 30 mg/kg, or both, vs vehicle-dosed group (Fig. 4)
Method: These agents were orally given once daily at the same time period as in the group administered with a single one agent. Only a vehicle was given orally to a control group. On day 25 after the start of administration, blood glucose was assayed sequentially, to compare the groups in terms of the resulting blood glucose levels.

[3] = test system: Type 2 diabetes model Zucker diabetic fatty rats; assay: Insulin content in pancreas after repeated dosing in Zucker diabetic fatty rats, ELISA (Example V); format: in vivo; details: twice daily p.o., day 39, starved 18 hours, inhibitor A 30 mg/kg, metformin 200 mg/kg, or both, ELISA of pancreas homogenates (Fig. 5)
Method: The agents were orally given twice daily at the same time period as in the case of the groups administered with a single one of these agents. Only a vehicle was orally given twice daily to the animals in a control group. On day 39 from the start of administration, the animals were starved for 18 hours. Then, pancreas was resected from the animals, for the assay of insulin in pancreas homogenates by ELISA, to compare the groups in terms of insulin content in pancreas.

glucose-loaded rats = assay: Blood glucose time course after oral glucose loading in rats (Example I); format: in vivo; details: Wistar rats, glucose 1 g/kg p.o.
Method: Wistar rats (age of 7 weeks; male) were divided into groups with matched body weights. After 17-hour starvation, glucose was orally given at 1 g/kg to the animals. Immediately after the administration, the inhibitor A of renal glucose reabsorption or the inhibitor B of renal glucose reabsorption (A at 30 mg/kg or 60 mg/kg; B at 30 mg/kg or 80 mg/kg) or glibenclamide (1 mg/kg or 2 mg/kg) or nateglinide (50 mg/kg or 80 mg/kg) was orally given. Additionally, a group on the combined use of both of an inhibitor of renal glucose reabsorption and a hypoglycemic agent was also prepared. A vehicle was orally given to a control group after glucose administration.
Blood glucose was measured in a time course.

[4] = inhibitor A 30 mg/kg p.o., vs control group (Fig. 3)
[5] = glibenclamide 1 mg/kg, inhibitor A 30 mg/kg, or both, p.o., vs vehicle group (Fig. 1)

Structure (SMILES): CCc1ccc(Cc2c(O[C@@H]3O[C@H](C(=O)O)[C@@H](O)[C@H](O)[C@H]3O)n[nH]c2C(F)(F)F)cc1 [Compound of Production Example 2-A, 4-((4-ethylphenyl)methyl)-5-(trifluoromethyl)-1H-pyrazol-3-yl-β-D-glucopyranoside uronic acid]
- Inhibition intensity (concentration of test compound) ([1]; 100 µM test compound): 30 % (100 µM)

Structure (SMILES): CCc1ccc(Cc2c(O[C@@H]3O[C@H](COC(=O)OC)[C@@H](O)[C@H](O)[C@H]3O)nn(C3CCCC3)c2C(F)(F)F)cc1 [Compound of Production Example 4, 1'-cyclopentyl-4'-[(4-ethylphenyl)methyl]-5'-trifluoromethyl-1H-pyrazole-3'-o-(6-carbomethoxy)-β-D-glucopyranoside]
- Urine sugar excretion (Male Wistar rats): 452 mg

Structure (SMILES): CSc1ccc(Cc2c(O[C@@H]3O[C@H](CO)[C@@H](O)[C@H](O)[C@H]3O)n[nH]c2C(F)(F)F)cc1 [Compound of Production Example 1-A, 4-((4-methylthiophenyl)methyl)-5-(trifluoromethyl)-1H-pyrazole-3-o-β-D-glucopyranoside]
- Inhibition intensity (concentration of test compound) ([1]; 10 µM test compound): 84 % (10 µM)

Structure (SMILES): CCc1ccc(Cc2c(O[C@@H]3O[C@H](CO)[C@@H](O)[C@H](O)[C@H]3O)nn(C3CCC3)c2C(F)(F)F)cc1 [1'-cyclobutyl-4'-[(4-ethylphenyl)methyl]-5'-trifluoromethyl-1H-pyrazole-3'-o-β-D-glucopyranoside]
- blood glucose level 2 hours later and thereafter (glucose-loaded mice; [4]): could not suppress the blood glucose level
- hyperglycemia 60 minutes after glucose loading (glucose-loaded mice; [4]): could suppress hyperglycemia
- increase of blood glucose / hyperglycemia 30 minutes after glucose loading (glucose-loaded mice; metformin 200 mg/kg or inhibitor A 30 mg/kg p.o., vs control group (Fig. 3)): could suppress hyperglycemia
- pattern of glycemic suppression at elevated dose (glucose-loaded mice; metformin 300 mg/kg or inhibitor A 45 mg/kg p.o., vs lower dose (Fig. 3)): did not change
- blood glucose level [2]: significantly lowered
- insulin content in pancreas [3]: no difference was observed
- blood glucose level 120 minutes after glucose loading and thereafter (glucose-loaded rats; [5]): did not lower the blood glucose level 120 minutes after glucose loading and thereafter as greatly as glibenclamide did
- hyperglycemia / blood glucose level immediately after glucose loading (30 minutes) (glucose-loaded rats; [5]): suppressed hyperglycemia
- pattern of glycemic suppression at increased dose (glucose-loaded rats; glibenclamide 2 mg/kg or inhibitor A 60 mg/kg p.o., vs lower dose (Fig. 1)): did not change

Structure (SMILES): CCc1ccc(Cc2c(O[C@@H]3O[C@H](COC(=O)OC)[C@@H](O)[C@H](O)[C@H]3O)nn(C3CCC3)c2C(F)(F)F)cc1 [Compound of Production Example 2, 1'-cyclobutyl-4'-[(4-ethylphenyl)methyl]-5'-trifluoromethyl-1H-pyrazole-3'-o-(6-carbomethoxy)-β-D-glucopyranoside]
- Urine sugar excretion (Male Wistar rats): 656 mg
